Reference: patent US6972296B2, “Carboxylic acid derivatives that inhibit the binding of integrins to their receptors” (Encysive Pharmaceuticals Inc., priority 1999, dated 2005)

Biological target: T1, α4β1 integrin (Homo sapiens, UniProt P05556+P13612)
T1 construct: endogenous in cells; host or cells: Ramos cells
Experiment: Adhesion of calcein-labeled Ramos cells to CS1 (fibronectin) peptide conjugated ovalbumin
Type: cell-based
Conditions: Ramos cell adhesion to CS1 conjugated ovalbumin
How it was run: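 Calcein AM-labelled Ramos cells (2.5×10^5/well) with compound, up to 100 μM, added to plates coated with CS1 peptide–ovalbumin (0.5 μg/ml) and blocked with 3% BSA. Binding buffer TBS pH 7.5 with 1 mM each MgCl2, CaCl2, MnCl2; 30 min, 37 °C. After washes, adherent cells lysed and read fluorometrically; […].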

[1] = Table 5, dose required to give 50% inhibition
[2] = Table 7, dose required to give 50% inhibition

T1 sequence (P13612 34-1032): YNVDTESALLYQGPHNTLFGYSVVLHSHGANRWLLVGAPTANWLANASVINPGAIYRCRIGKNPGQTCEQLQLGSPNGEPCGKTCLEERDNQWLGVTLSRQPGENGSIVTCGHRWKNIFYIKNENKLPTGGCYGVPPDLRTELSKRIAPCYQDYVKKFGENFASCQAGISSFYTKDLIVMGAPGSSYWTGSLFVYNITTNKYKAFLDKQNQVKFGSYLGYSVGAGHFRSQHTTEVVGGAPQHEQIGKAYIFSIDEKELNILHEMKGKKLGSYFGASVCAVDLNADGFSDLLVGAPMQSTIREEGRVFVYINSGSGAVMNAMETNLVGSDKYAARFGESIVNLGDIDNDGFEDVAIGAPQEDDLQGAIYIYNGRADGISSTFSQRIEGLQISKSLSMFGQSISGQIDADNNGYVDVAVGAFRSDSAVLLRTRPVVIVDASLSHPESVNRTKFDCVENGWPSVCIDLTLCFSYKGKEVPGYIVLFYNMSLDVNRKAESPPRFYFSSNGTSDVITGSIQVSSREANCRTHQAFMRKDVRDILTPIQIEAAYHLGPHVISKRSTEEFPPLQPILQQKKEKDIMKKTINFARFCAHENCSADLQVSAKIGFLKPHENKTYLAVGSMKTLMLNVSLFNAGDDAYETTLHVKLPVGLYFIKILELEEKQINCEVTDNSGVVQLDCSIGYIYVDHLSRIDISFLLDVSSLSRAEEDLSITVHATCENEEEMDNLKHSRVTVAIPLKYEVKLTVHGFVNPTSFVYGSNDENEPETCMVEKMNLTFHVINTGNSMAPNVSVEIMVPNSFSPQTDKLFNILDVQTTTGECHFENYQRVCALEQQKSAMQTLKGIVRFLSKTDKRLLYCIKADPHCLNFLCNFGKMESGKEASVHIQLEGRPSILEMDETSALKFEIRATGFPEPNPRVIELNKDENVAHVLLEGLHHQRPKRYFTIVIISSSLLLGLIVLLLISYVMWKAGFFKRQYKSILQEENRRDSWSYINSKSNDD
T1 sequence (P05556 21-798): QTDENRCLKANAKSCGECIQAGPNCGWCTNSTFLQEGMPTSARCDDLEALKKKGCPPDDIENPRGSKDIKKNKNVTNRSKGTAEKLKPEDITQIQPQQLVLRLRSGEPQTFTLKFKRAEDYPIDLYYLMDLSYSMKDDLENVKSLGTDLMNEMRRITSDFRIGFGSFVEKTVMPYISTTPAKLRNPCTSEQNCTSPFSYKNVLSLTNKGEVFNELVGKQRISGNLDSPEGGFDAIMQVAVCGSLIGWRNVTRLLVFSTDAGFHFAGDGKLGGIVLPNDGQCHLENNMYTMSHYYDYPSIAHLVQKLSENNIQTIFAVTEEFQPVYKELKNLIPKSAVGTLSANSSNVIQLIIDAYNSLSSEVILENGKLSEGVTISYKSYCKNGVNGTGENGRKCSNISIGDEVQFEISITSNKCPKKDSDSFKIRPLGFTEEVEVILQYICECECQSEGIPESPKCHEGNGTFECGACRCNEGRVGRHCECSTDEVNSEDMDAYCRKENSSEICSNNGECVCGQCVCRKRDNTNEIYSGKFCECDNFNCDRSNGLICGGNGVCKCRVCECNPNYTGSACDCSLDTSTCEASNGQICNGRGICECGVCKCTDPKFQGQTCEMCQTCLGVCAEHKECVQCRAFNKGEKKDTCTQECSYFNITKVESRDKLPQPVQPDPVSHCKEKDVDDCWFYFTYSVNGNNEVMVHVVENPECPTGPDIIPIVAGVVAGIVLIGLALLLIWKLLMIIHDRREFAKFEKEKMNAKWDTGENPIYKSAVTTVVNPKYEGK

| Structure (SMILES) | IC50 [1] [nM] | IC50 [2] [nM] | also measured |
| --- | --- | --- | --- |
| CCc1cn(Cc2ccccc2Cl)c(=O)c(NC(=O)N[C@@H](CC(=O)O)c2ccc(C)cc2)c1O [(3S)-3-[({[1-(2-chlorobenzyl)-5-ethyl-4-hydroxy-2-oxo-1,2-dihydropyridin-3-yl]amino}carbonyl)amino]-3-(4-methylphenyl)propanoic acid] | 10 | – | – |
| O=C(O)C[C@H](NC(=O)Nc1c(O)ccn(Cc2ccccc2Cl)c1=O)c1ccccc1 [(3S)-3-{[({1-[(2-chlorophenyl)methyl]-4-hydroxy-2-oxo-1,2-dihydro-3-pyridinyl}amino)carbonyl]amino}-3-phenylpropanoic acid] | – | – | IC50 (Table 3, 30 minutes at 37° C.): 10 nM |
| Cc1ccc([C@H](CC(=O)O)NC(=O)Nc2c(O)ccn(Cc3c(F)cccc3F)c2=O)cc1 [(3S)-3-[({[1-(2,6-difluorobenzyl)-4-hydroxy-2-oxo-1,2-dihydropyridin-3-yl]amino}carbonyl)amino]-3-(4-methylphenyl)propanoic acid] | 8 | – | – |
| O=C(O)C[C@H](NC(=O)Nc1c(O)ccn(Cc2ccccc2Cl)c1=O)c1ccc(OC(F)(F)F)cc1 | – | – | IC50 (Table 4, 30 minutes at 37° C.): 15 nM |
| COc1cc([C@H](CC(=O)O)NC(=O)Nc2c(O)c(C)cn(Cc3c(C)cccc3Cl)c2=O)ccc1C | – | – | IC50 (Table 6, 30 minutes at 37° C.): 25 nM |
| Cc1cn(Cc2ccccc2Cl)c(=O)c(NC(=O)N[C@@H](CC(=O)O)c2ccc(OC3CC3)cc2)c1O | – | 6 | – |
| CCn1c(=O)n(CC)c2cc([C@H](CC(=O)O)NC(=O)Nc3c(O)c4c(n(Cc5ccccc5Cl)c3=O)CCC4)ccc21 | – | 4 | – |
| Cc1ccc([C@H](CC(=O)O)NC(=O)Nc2c(O)c(C)cn(Cc3ccc(Cl)cc3Cl)c2=O)cc1 | 20 | – | – |
| CCCc1ccc([C@H](CC(=O)O)NC(=O)Nc2c(O)c(C)cn(Cc3ccccc3Cl)c2=O)cc1 | – | 12 | – |
| CCOc1ccc([C@H](CC(=O)O)NC(=O)Nc2c(O)c(C3CC3)cn(Cc3ccccc3Cl)c2=O)cc1OCC | – | – | IC50 (Table 6, 30 minutes at 37° C.): 6 nM |
| CCOc1cccc(Cl)c1Cn1cc(C)c(O)c(NC(=O)NC(CC(=O)O)c2ccco2)c1=O (stereo not drawn) | – | 8 | – |
| Cc1cccc(Cl)c1Cn1c2c(c(O)c(NC(=O)N[C@@H](CC(=O)O)c3cccc(OC4CC4)c3)c1=O)CCC2 | – | 4 | – |
| Cc1ccc(-c2ccc([C@H](CC(=O)O)NC(=O)Nc3c(O)ccn(Cc4ccccc4Cl)c3=O)cc2)cc1 | – | 40 | – |
| O=C(O)C[C@H](NC(=O)Nc1c(O)c2c(n(Cc3ccccc3Cl)c1=O)CCC2)c1ccccc1 | – | 8 | – |
| Cc1cccc(Cl)c1Cn1c2c(c(O)c(NC(=O)N[C@@H](CC(=O)O)c3ccc4c(ccn4C)c3)c1=O)CCC2 [(3S)-3-{[({1-[(2-chloro-6-methylphenyl)methyl]-4-hydroxy-2-oxo-2,5,6,7-tetrahydro-1H-cyclopenta[b]pyridin-3-yl}amino)carbonyl]amino}-3-(1-methyl-1H-indol-5-yl)propanoic acid] | – | 3 | – |
| CCOc1cc([C@H](CC(=O)O)NC(=O)Nc2c(O)c3c(n(Cc4c(C)cccc4Cl)c2=O)CCC3)ccc1Cl | – | 25 | – |
| O=C(O)C[C@H](NC(=O)Nc1c(O)ccn(Cc2ccccc2Cl)c1=O)c1ccc(F)cc1 | – | – | IC50 (Table 3, 30 minutes at 37° C.): 30 nM |
| Cc1ccc(C)c([C@H](CC(=O)O)NC(=O)Nc2c(O)ccn(Cc3ccccc3Cl)c2=O)c1 | 50 | – | – |
| CCCOc1cccc([C@H](CC(=O)O)NC(=O)Nc2c(O)ccn(Cc3ccccc3Cl)c2=O)c1 | 3 | – | – |

| Structure (SMILES) | IC50 [1] [nM] | IC50 [2] [nM] | also measured |
| --- | --- | --- | --- |
| CCCCOc1cccc([C@H](CC(=O)O)NC(=O)Nc2c(O)c(C)cn(Cc3c(Cl)cccc3OCC)c2=O)c1 | – | 4 | – |
| Cc1ccc([C@H](CC(=O)O)NC(=O)Nc2c(O)ccn(Cc3ccc(Cl)cc3)c2=O)cc1 [(3S)-3-[({[1-(4-chlorobenzyl)-4-hydroxy-2-oxo-1,2-dihydropyridin-3-yl]amino}carbonyl)amino]-3-(4-methylphenyl)propanoic acid] | 7 | – | – |
| Cc1ccc([C@H](CC(=O)O)NC(=O)Nc2c(O)c(C3CC3)cn(Cc3ccccc3Cl)c2=O)cc1 | – | – | IC50 (Table 6, 30 minutes at 37° C.): 20 nM |
| O=C(O)CC(NC(=O)Nc1c(O)ccn(Cc2ccccc2Cl)c1=O)c1cccc(Cl)c1 (stereo not drawn) | – | – | IC50 (Table 3, 30 minutes at 37° C.): 30 nM; IC50 (Table 4, 30 minutes at 37° C.): 30 nM |
| CCOc1cc(OCC)cc([C@H](CC(=O)O)NC(=O)Nc2c(O)c(C)cn(Cc3ccccc3Cl)c2=O)c1 | – | – | IC50 (Table 6, 30 minutes at 37° C.): 3 nM |
| COc1cccc([C@H](CC(=O)O)NC(=O)Nc2cccn(Cc3cccs3)c2=O)c1 | – | – | IC50 (Table 4, 30 minutes at 37° C.): 1400 nM |
| O=C(O)C[C@H](NC(=O)Nc1c(O)c2c(n(Cc3ccccc3Cl)c1=O)CCC2)c1cccc(OC2CCCC2)c1 | – | 7 | – |
| Cc1ccc([C@H](CC(=O)O)NC(=O)Nc2c(O)ccn(Cc3cc(C(F)(F)F)ccc3Cl)c2=O)cc1 [(3S)-3-{[({1-[2-chloro-5-(trifluoromethyl)benzyl]-4-hydroxy-2-oxo-1,2-dihydropyridin-3-yl}amino)carbonyl]amino}-3-(4-methylphenyl)propanoic acid] | 10 | – | – |
| Cc1ccc([C@H](CC(=O)O)NC(=O)Nc2cccn(Cc3cc(O)ccc3Cl)c2=O)cc1 | 250 | – | – |
| CCOc1cc([C@H](CC(=O)O)NC(=O)Nc2c(O)c(C)cn(Cc3ccccc3Cl)c2=O)ccc1-c1ccccc1 | – | 25 | – |
| O=C(O)C[C@H](NC(=O)Nc1c(O)c2c(n(Cc3ccccc3Cl)c1=O)CCC2)c1cccc(-c2ccccc2)c1 | – | 17 | – |
| COc1ccc([C@H](CC(=O)O)NC(=O)Nc2c(O)ccn(Cc3ccccc3Cl)c2=O)cc1F | 15 | – | – |
| Cc1ccc([C@H](CC(=O)O)NC(=O)Nc2c(O)c(C)c(C)n(Cc3ccccc3Cl)c2=O)cc1 [(3S)-3-[({[1-(2-chlorobenzyl)-4-hydroxy-5,6-dimethyl-2-oxo-1,2-dihydropyridin-3-yl]amino}carbonyl)amino]-3-(4-methylphenyl)propanoic acid] | 6 | – | – |
| O=C(O)CC(NC(=O)Nc1c(O)ccn(Cc2ccccc2Cl)c1=O)c1cccc2ccccc12 (stereo not drawn) | 200 | – | – |
| CCOc1cccc(-c2ccc([C@H](CC(=O)O)NC(=O)Nc3c(O)ccn(Cc4ccccc4Cl)c3=O)cc2)c1 | – | 27 | – |
| CCCOc1cccc(Cl)c1Cn1cc(C)c(O)c(NC(=O)N[C@@H](CC(=O)O)c2ccc(C)cc2)c1=O | – | 10 | – |
| Cc1ccc([C@H](CC(=O)O)NC(=O)Nc2c(NCc3ccccn3)ccn(Cc3ccccc3Cl)c2=O)cc1 | – | – | IC50 (Table 3, 30 minutes at 37° C.): 15 nM |
| CCCc1cn(Cc2c(Cl)cccc2OCC)c(=O)c(NC(=O)N[C@@H](CC(=O)O)c2ccc(C)cc2)c1O | – | 20 | – |
| Cc1cn(Cc2ccccc2Cl)c(=O)c(NC(=O)N[C@@H](CC(=O)O)c2ccc(C(C)C)cc2)c1O | – | 175 | – |

| Structure (SMILES) | IC50 [1] [nM] | IC50 [2] [nM] | also measured |
| --- | --- | --- | --- |
| Cc1ccc([C@H](Cc2nnn[nH]2)NC(=O)Nc2c(O)c(C)cn(Cc3ccccc3Cl)c2=O)cc1 | – | 6000 | – |
| Cc1ccc([C@H](CC(=O)O)NC(=O)Nc2c(O)ccn(Cc3cccc(OC(F)(F)F)c3)c2=O)cc1 | 45 | – | – |
| O=C(O)C[C@H](NC(=O)Nc1cccn(Cc2ccccc2Cl)c1=O)c1ccc(O)cc1 [(3S)-3-{[({1-[(2-chlorophenyl)methyl]-2-oxo-1,2-dihydro-3-pyridinyl}amino)carbonyl]amino}-3-(4-hydroxyphenyl)propanoic acid] | – | – | IC50 (Table 4, 30 minutes at 37° C.): 100 nM |
| O=C(O)C[C@H](NC(=O)Nc1c(O)c2c(n(Cc3ccccc3Cl)c1=O)CCC2)c1cc(C(F)(F)F)cc(C(F)(F)F)c1 | – | 130 | – |
| CCOc1cc(OCC)cc([C@H](CC(=O)O)NC(=O)Nc2c(O)ccn(Cc3ccccc3Cl)c2=O)c1 | – | – | IC50 (Table 6, 30 minutes at 37° C.): 7 nM |
| Cc1ccc([C@H](CC(=O)O)NC(=O)Nc2c(O)ccn(Cc3cccc(Cl)c3)c2=O)cc1 | 15 | – | – |
| Cc1ccc([C@H](CC(=O)O)NC(=O)Nc2c(O)c(C)cn([C@@H](C)c3ccccc3)c2=O)cc1 | – | – | IC50 (Table 6, 30 minutes at 37° C.): 1500 nM |
| Cc1ccc([C@H](CC(=O)O)NC(=O)Nc2c(O)ccn(Cc3cc(S(C)(=O)=O)ccc3Cl)c2=O)cc1 [(3S)-3-{[({1-[2-chloro-5-(methylsulfonyl)benzyl]-4-hydroxy-2-oxo-1,2-dihydropyridin-3-yl}amino)carbonyl]amino}-3-(4-methylphenyl)propanoic acid] | 3 | – | – |
| CCN(CC)c1cccc([C@H](CC(=O)O)NC(=O)Nc2c(O)c(C)cn(Cc3ccccc3Cl)c2=O)c1 [(3S)-3-[({[1-(2-chlorobenzyl)-4-hydroxy-5-methyl-2-oxo-1,2-dihydropyridin-3-yl]amino}carbonyl)amino]-3-[3-(diethylamino)phenyl]propanoic acid] | – | 2 | – |
| Cc1cn(Cc2ccccc2Cl)c(=O)c(NC(=O)N[C@@H](CC(=O)O)c2cnc3ccccc3c2)c1O | – | 22 | – |
| Cc1ccc([C@H](CC(=O)O)NC(=O)Nc2c(O)ccn(Cc3cccc(S(C)(=O)=O)c3)c2=O)cc1 | – | – | IC50 (Table 6, 30 minutes at 37° C.): 25 nM |
| O=C(O)C[C@H](NC(=O)Nc1c(O)ccn(Cc2ccccc2Cl)c1=O)c1cccc(OC(F)F)c1 [(3S)-3-[({[1-(2-chlorobenzyl)-4-hydroxy-2-oxo-1,2-dihydropyridin-3-yl]amino}carbonyl)amino]-3-[3-(difluoromethoxy)phenyl]propanoic acid] | 6 | – | – |
| O=C(O)C[C@H](NC(=O)Nc1cccn(Cc2ccc(Cl)cc2)c1=O)c1ccc2c(c1)OCO2 | – | – | IC50 (Table 4, 30 minutes at 37° C.): 3000 nM |
| Cc1ccc([C@H](CC(=O)O)NC(=O)Nc2c(NC(=O)NC(C)(C)C)ccn(Cc3ccccc3Cl)c2=O)cc1 [(3S)-3-[({[4-{[(tert-butylamino)carbonyl]amino}-1-(2-chlorobenzyl)-2-oxo-1,2-dihydropyridin-3-yl]amino}carbonyl)amino]-3-(4-methylphenyl)propanoic acid] | 10 | – | – |
| Cc1ccc([C@H](CC(=O)O)NC(=O)Nc2c(O)cc(C)n(Cc3ccccc3)c2=O)cc1 | – | – | IC50 (Table 4, 30 minutes at 37° C.): 35 nM |
| CCn1ccc2cc([C@H](CC(=O)O)NC(=O)Nc3c(O)c4c(n(Cc5ccccc5Cl)c3=O)CCC4)ccc21 [(3S)-3-{[({1-[(2-chlorophenyl)methyl]-4-hydroxy-2-oxo-2,5,6,7-tetrahydro-1H-cyclopenta[b]pyridin-3-yl}amino)carbonyl]amino}-3-(1-ethyl-1H-indol-5-yl)propanoic acid] | – | 5 | – |
| Cc1ccc([C@H](CC(=O)O)NC(=O)Nc2cccn(Cc3c(Cl)cccc3Cl)c2=O)cc1 | – | – | IC50 (Table 4, 30 minutes at 37° C.): 200 nM |
| Cc1ccc([C@H](CC(=O)O)NC(=O)Nc2c(O)c(C)cn(Cc3ccc(S(C)(=O)=O)cc3)c2=O)cc1 | 20 | – | – |
